The text below walks through data of patent publication US9073928B2, “Tosylate salt of cyclopropanecarboxylic acid 4-(6-chloro-3-methyl-4, 10-dihydro-3H-2,3,4,9-tetrabenzo[f]azulene-9-carbonyl)-2-fluorobenzylamide” (Vantia Limited, priority 2010, dated 2015).

Values after ≈ are worked out from the molar mass of the structure shown.

The term solubility denotes how much of the substance goes into solution per volume. Read a high solubility as a readily soluble substance. In general, AUC(0-t) refers to exposure summed from dosing to a finite time, without extrapolation to infinity. Low values mean less exposure, high ones more exposure. In general, Cmax refers to the peak of the concentration-time curve.

A short description of data set [1]: physchem. As to conditions: 37 °C, water, thermodynamic from solid.
Protocol: (§1) A spectrophotometric method was used. Standards were prepared in methanol (including a methanol blank) and the absorbance measured at 260 and 270 nm, from which a calibration line was generated for each wavelength. The test compound was incubated with agitation in water at 37° C. for 24 h before removal of non-soluble material by centrifugation. The supernatant was analysed against the calibration lines (after subtraction of the water blank response) and the mean of the determinations at the two wavelengths was reported.
In data set [2] the target is V1a vasopressin receptor (Homo sapiens, UniProt P37288). As to conditions: dysmenorrhoea patients, oral; cited from earlier work.
Sequence of V1a vasopressin receptor (P37288 whole entry): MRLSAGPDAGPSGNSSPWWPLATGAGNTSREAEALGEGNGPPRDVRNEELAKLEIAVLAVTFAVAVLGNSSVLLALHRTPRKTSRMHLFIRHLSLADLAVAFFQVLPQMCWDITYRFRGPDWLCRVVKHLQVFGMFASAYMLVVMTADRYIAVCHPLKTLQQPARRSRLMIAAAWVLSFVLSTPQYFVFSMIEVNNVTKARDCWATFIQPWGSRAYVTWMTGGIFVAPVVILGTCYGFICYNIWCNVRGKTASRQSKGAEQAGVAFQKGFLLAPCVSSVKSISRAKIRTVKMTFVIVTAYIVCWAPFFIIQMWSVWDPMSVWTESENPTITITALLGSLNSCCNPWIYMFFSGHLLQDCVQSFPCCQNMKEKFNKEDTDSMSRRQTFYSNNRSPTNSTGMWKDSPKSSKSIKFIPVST
The nature of data set [3]: Oral availability: plasma exposure in rats after oral dosing of suspensions. The data set is classed as in vivo. The note with it: rat, suspension in 0.5% HPMC, 10 mg/kg p.o.
Description: The plasma exposure in rats following dosing with the cyclopropanecarboxylic acid 4-(6-chloro-3-methyl-4,10-dihydro-3H-2,3,4,9-tetraazabenzo[f]azulene-9-carbonyl)-2-fluoro-benzylamide para-toluenesulphonate (“Tosylate”) has been examined in comparison with the corresponding free base, cyclopropanecarboxylic acid 4-(6-chloro-3-methyl-4,10-dihydro-3H-2,3,4,9-tetraazabenzo[f]azulene-9-carbonyl)-2-fluoro-benzylamide (“Free Base”).
Data set [4] is described as follows: Thermodynamic solubility in water (spectrophotometric method).
Protocol: as §1
For data set [5], the target named is T1, cloned human V1a receptor (Homo sapiens, UniProt P37288).
T1 construct: expressed in transfected cells
T1 sequence (P37288 whole entry): as above
The experiment in a line: In vitro functional calcium mobilisation assay (FLIPR), antagonist activity. Format: cell-based. As to conditions: read-out: mean fpKi (Human V1a) (converted). The source says:
The ability of the tosylate salt of the invention to inhibit the vasopressin V1a receptor may be determined using the in vitro functional calcium mobilisation assay (FLIPR) described in PCT/DK2005/000540. This assay measures antagonist activity at a cloned human V1a receptor.
For orientation: Calcium assays in cells follow changes in intracellular calcium, usually with a dye or a luminescent sensor.

As to `Cn1ncc2c1Nc1cc(Cl)ccc1N(C(=O)c1ccc(CNC(=O)C3CC3)c(F)c1)C2` [Free base, cyclopropanecarboxylic acid 4-(6-chloro-3-methyl-4,10-dihydro-3H-2,3,4,9-tetraazabenzo[f]azulene-9-carbonyl)-2-fluoro-benzylamide, reference compound], the solubility at 24 h in data set [1] amounted to 5 µg/mL (≈ 11 µM).
`COc1ccc(S(=O)(=O)N2c3ccc(Cl)cc3[C@](O)(c3ccccc3Cl)[C@@H]2C(=O)N2CCC[C@H]2C(N)=O)cc1OC` [SR49059]: in data set [2], the “Pain and additional pain-killer use compared to placebo” value is reported as “dose-related decrease in the amount of additional pain-killer taken”.
Turning to `Cc1ccc(S(=O)(=O)O)cc1.Cn1ncc2c1Nc1cc(Cl)ccc1N(C(=O)c1ccc(CNC(=O)C3CC3)c(F)c1)C2` [Tosylate, cyclopropanecarboxylic acid 4-(6-chloro-3-methyl-4,10-dihydro-3H-2,3,4,9-tetraazabenzo[f]azulene-9-carbonyl)-2-fluoro-benzylamide para-toluenesulphonate], in data set [3] (in vivo, po), the AUC(0-t) was 670 ng·h/mL and the Cmax stood at 209 ng/mL. The “Plasma exposure / absorption after oral dosing (in words)” value in data set [3] is recorded as “significant improvements in plasma exposure”. In data set [4], the “Solubility in water relative to known free base” value was 8 ×. This compound also registered a solubility at 24 h in data set [4] (37 °C, thermodynamic from solid) of 40 µg/mL. Moreover, in data set [5], the Ki was 3.16 nM.
